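All cell lines were grown in 96-well plates and treated with compound for 48 hours. GI50: concentration for 50% inhibition of growth. At the TGI there is no net growth.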
Tests used:
Experiment in all cases: growth of human tumour cells (NCI), 48 h
HCT-15 colon = tested on: HCT-15 colon
K-562 leukemia = tested on: K-562 leukemia
MALME-3M melanoma = tested on: MALME-3M melanoma
MCF7 breast = tested on: MCF7 breast
NCI-H23 lung = tested on: NCI-H23 lung
SF-539 CNS = tested on: SF-539 CNS
SK-MEL-5 melanoma = tested on: SK-MEL-5 melanoma
SN12C renal = tested on: SN12C renal
SNB-19 CNS = tested on: SNB-19 CNS
UO-31 renal = tested on: UO-31 renal

Compound	TGI (HCT-15 colon) [µM]	TGI (K-562 leukemia) [µM]	TGI (MALME-3M melanoma) [µM]	TGI (MCF7 breast) [µM]	TGI (NCI-H23 lung) [µM]	TGI (SF-539 CNS) [µM]	TGI (SK-MEL-5 melanoma) [µM]	TGI (SN12C renal) [µM]	TGI (SNB-19 CNS) [µM]	TGI (UO-31 renal) [µM]	GI50 (HCT-15 colon) [µM]	GI50 (K-562 leukemia) [µM]	GI50 (MALME-3M melanoma) [µM]	GI50 (MCF7 breast) [µM]	GI50 (NCI-H23 lung) [µM]	GI50 (SF-539 CNS) [µM]	GI50 (SK-MEL-5 melanoma) [µM]	GI50 (SN12C renal) [µM]	GI50 (SNB-19 CNS) [µM]	GI50 (UO-31 renal) [µM]
OC(COC(c1ccccc1)(c1ccccc1)c1ccccc1)C(O)CC1SCCS1 (stereo not drawn)	73.9	> 100	26.3	71.9	40	43.8	40.1	45.2	54.9	24.5										
O=C(CCCN1CCC(O)(c2ccc(Cl)cc2)CC1)c1ccc(F)cc1	37.5	> 100	36.2	> 100	84.1	60.3	29.7	> 100	> 100	45.8										
COc1cc(Nc2ncc(-c3ccccc3)o2)cc(OC)c1	> 25	> 25	> 25	> 25	> 25	> 25	> 25	> 25	> 25	> 25	18.6	> 22.5	> 25	> 25	> 25	> 25	> 25	> 25	> 25	> 25
Cc1ccccc1NC(=O)c1sc2nc(C)c(C(=O)/C=C/c3ccccc3)cc2c1N	1.94	> 50	6.11	8.69	3.16	1.96	2.71	2.5	3.58	1.53	0.836	0.731	1.43	1.5	1.21	0.977	1.11	1.07	1.16	0.814
CC1(C)CNc2cc(NC(=O)c3cccnc3NCc3ccncc3)ccc21	> 87.7	> 100	84.9	> 100	> 100	58.9	30.8	> 100	> 100	> 100	22.2	19.9	15.9	23	27.6	7.5	16	25.5	48.4	20
CNC(=O)c1c(NC(=O)c2ccc(C(C)(C)C)cc2)sc2c1CCC(=O)C2	1.27	> 100	1.59	1.33	1.24	1.22	1.33	1.4	1.39	0.819	0.12	0.0659	0.345	0.264	0.266	0.244	0.349	0.333	0.321	0.214
COc1ccc2c(c1OC)CO[C@@H]2[C@H]1c2c(cc3c(c2OC)OCO3)CCN1S(=O)(=O)c1cn(C)cn1	> 100	> 100	> 100	> 100	> 100	5.66	6.24	> 100	> 100	> 100	0.722	0.413	0.77	0.407	3.43	1.57	0.444	3.9	1.76	5.2
CNC(=O)c1c(NC(=O)c2ccc(C(C)(C)C)cc2)sc2c(CN(C)C)c(O)ccc12	1.82	1.32	3.51	2.95		3.13	3.25			2.89	0.459	0.317	1.73	1.41		1.66	1.81			1.49
CC(N)(Cc1c[nH]c2cccc(F)c12)C(=O)O (stereo not drawn)	> 1000	> 1000	> 1000	> 1000	> 1000	> 1000	> 1000	> 1000	> 1000	> 1000	> 1000	> 1000	> 1000	> 1000	> 1000	> 1000	> 1000	> 1000	> 1000	138
COc1cc(/C=N/Nc2ncnc3c2cnn3-c2ccccc2)ccc1O	> 25	> 25	> 25	> 25	> 25	> 25	> 25	> 25	> 25	> 25	4.06	2.85	> 25	6.54	> 25	8.84	12.6	> 25	> 25	
COc1ccc(CN2c3ccccc3Sc3ccccc32)c(C(F)(F)F)c1	> 100	> 100	> 100	36.8	93.4	3.89	15.7	> 100	> 100	> 100	0.489	0.395	21	0.349	1.03	0.452	0.5	9.73	3.8	3.98
CCOCCCn1c2c(c3c(O)cccc31)C(=O)c1ccccc1-2	65.6	55.7	37.1	> 100	53.2	63.3	29.8	25.5	> 100	38.4	26.8	18.6	14.7	32.6	19.1	24.7	15.8	11.5	26.7	15.9
COc1cccc(CC(C)=C(c2ccc(OCCN3CCCCC3)cc2)c2ccc(OCCN3CCCCC3)cc2)c1	2.99	0.802	3.81	2.81	4.47	4.11	4.17	4.04	4.13	3.66	0.992	0.315	1.84	0.728	2.13	2.11	2.23	2.02	2.11	1.84
Nc1ccc(C2=CC(c3ccc(Cl)cc3)N3C=CSC3=N2)cc1 (stereo not drawn)	5.63		47.8	4.52	46.8	3.85	19.2	26.9	29	11	2		18.1	1.22	17.8	1.84	5.67	6.4	11.8	2.33
CCN(Cc1ccccc1)C1CCN(Cc2cc(Br)ccc2O)CC1	> 100	> 100	53	> 100	> 100	> 100	28.9	> 100	> 100	> 100	20.1	26.6	24	27.8	34.9	36.7	15	42.9	57.2	24
COC(=O)[C@H](Cc1cnc[nH]1)NC(=O)[C@@H](NC(=O)Nc1cc(C(F)(F)F)cc(C(F)(F)F)c1)C(C)C	36	40.5	32.2	29.6	31.7	32.3	31.1	28	23.2	29.5	18.2	19.2	16.9	14.4	16.4	17	17.1	14.5	10.9	15
COc1ccc(Cc2coc3ccccc3c2=O)cc1OC	> 100	> 100	> 100	> 100	> 100	> 100	67.8	> 100	> 100	> 100										
O=C(Nc1ccccc1)Nc1ccc2cc3ccc(NC(=O)Nc4ccccc4)cc3nc2c1	> 100	1.1	3.06	3.14	3.3	3.01	3.11	2.72	3.05	> 100	37.2	0.363	1.54	1.08	1.48	1.63	1.65	1.34	1.58	> 100
O=C(/C=C\c1ccc([N+](=O)[O-])cc1)c1ccccc(=O)c1O	4.2	> 30.9	3.08	2.64	12.4		2.38	> 100	16.8	3.3										
COCc1c(-c2cc3cc(C)cc(OC)c3s2)c2c(N)ncnn2c1CN1CCNC(=O)C1	83.7		17.3	33.6	70.7	14.4	18.6	67.1	> 100	11.9	3.63		2.83	3.82	4.45	2.31	6.16	4.02	8.21	1.76
CC1=C(SCCC(=O)OC(C[Se]C2=C(C)C(=O)c3ccccc3C2=O)C(=O)NCCCCCC(=O)OCc2ccccc2)C(=O)c2ccccc2C1=O (stereo not drawn)	21.3	> 100	6.96	29.6	7.84	15.3	14.9	16.7	14	15.3	6.53	3.04	2.07	4.75	2.76	4.49	3.81	4.63	3.82	2.51
CCN(CC)CCCNc1cc(OC)cc2nc3cc(Cl)ccc3nc12	35.4	11.6	3.35	6.51	4.32	21.7	2.96	14.5	11.7	4.08	4.12	1.54	1.68	1.5	1.79	8.36	1.59	1.09	2.77	1.19
COC(=O)C1=C(O)[C@H](C(=O)OC)C2(O)C(C(=O)OC)[C@H](c3ccc(OC(=O)C(C)c4ccc(CC(C)C)cc4)cc3)C[C@@H]1[C@@H]2C(=O)OC (stereo partly drawn)	> 50	> 50		> 50	24.9	8.05	> 50	22.9	> 50	> 50	12.9	0.695		8.18	11.1	1.4	15	9.58	40	12.3
Cc1ccc(/C=N/Nc2nc(Nc3ccccc3)nc(-n3nc(C)cc3C)n2)cc1	46.4	42.7	26.8	10.6	24.3	25.1	7.44	92.4		19.7	2.63	3.71	4.21	2.89	5.41	4.5	1.77	3.11		4.09
CCOC(=O)c1cc2c(cc1Cl)SC(=Nc1ccccc1)N(S(=O)(=O)c1ccc(Cl)cc1)S2(=O)=O	21.9	38.7		15.9	29.8	34.8	21.6	33.2	> 100	33.3	6.52	15		4.38	13.5	18.3	9.5	15.4	20.2	15.9
NC(=O)c1cc([N+](=O)[O-])c(Cl)c([N+](=O)[O-])c1Cl	3.25		4.52	2.64	4.25	3.79	3.11	3.27	5.93	3.48	0.458		1.74	0.893	1.96	1.99	1.71	1.75	2.29	1.58
COc1ccc2c(c1)[nH]c(=O)c1c3cccc(F)c3cn21	> 100	12.3		> 94.6	> 52.3	0.455	> 100	24.4	> 69.6	> 70.6	0.0458	0.024		0.22	0.21	0.0522	0.0449	0.0828	0.218	0.0596
